Measurements taken from PubChem BioAssay AID2060505 (Molecular Pharmacology Branch, DTP, NCI, 2025).

Tested on: 633275-114-R-J1-PDC complex spheroids, viability
Assay: Anticancer human tumor 633275-114-R-J1-PDC patient-derived endometrial adenocarcinoma cell line growth inhibition [GQUAD]
Conditions: for IC50: curve of first compound; for viability, T/C: stronger effect = lower value; active means viability on the fitted dose curve at most 10% of control; inactive means the rest
Description: DNA G-quadruplex Stabilizer Agents in Combinations in Complex Spheroids
A high-throughput screen of multi-cell type tumor spheroids was designed to identify active combinations of DNA G-quadruplex stabilizer agents and targeted small molecules. Complex spheroids include a stromal component modeled by human endothelial cells (HUVEC) and fibroblasts modeled by human mesenchymal stem cells (MSCs). The concentration ranges selected for each drug and investigational agent were based upon clinically achievable concentrations if the clinical Cmax of the agent was known.
Compounds. The drugs and investigational agents: pidnarulex (CX-5461; NSC782164), APTO-253 (NSC789042), BRACO-19 (NSC847499), peposertib (NSC802822), ceralasertib (NSC780249), elimusertib (NSC800525), camonsertib (NSC841442), AZD-1390 (NSC803789), olaparib (NSC753686), talazoparib (NSC767125), ART-558 (NSC835418), sotorasib (NSC818433), MRTX-1133 (NSC836407), SN-38 (NSC673596), topotecan (NSC609699), etoposide (NSC141540), doxorubicin (NSC123127), gemcitabine (NSC613327), 5-fluorouracil (NSC19893), paclitaxel (NSC125973), vemurafenib (NSC761431), panobinostat (NSC761190), R-306465 (JNJ-16241199; NSC773264), adavosertib (NSC754352), TP-3654 (NSC805149), carboplatin (NSC241240), KSQ-4279 (NSC840948), and staurosporine (NSC755774) were obtained from the National Cancer Institute (NCI) Developmental Therapeutics Program Chemical Repository (34). The FDA-approved anticancer drug set is available from the NCI Developmental Therapeutics Program. […] The stock solutions were prepared in dimethyl sulfoxide (DMSO, Sigma-Aldrich, St. Louis, MO, cat. D2650) at 800-fold the tested concentration and stored at -70 degrees C prior to their use. All drugs and investigational agents were tested over a range starting from a high concentration at or near the clinical Cmax and decreasing in half-log increments. If the clinical Cmax for an agent had not been determined, the highest concentration tested was 10 microM.
2.3 Cell Culture. All cells were maintained in an incubator at 37 degrees C and 5% CO2 with 95% humidity. The PDC lines were cultured according to standard operating procedures established by the NCI PDMR. All PDCs were thawed and cultured in Matrigel-coated flasks prepared with a working solution of 1X Ham's F-12 nutrient mix, without supplementation (Invitrogen, cat. 11765054), 100 U/mL penicillin-streptomycin (Invitrogen, cat. 15140122), and 2.5% Matrigel (Corning Inc., cat. 354248) for the first three passages. The 857933-349-R-J2-PDC line was cultured in 6C/Colon 1B media, which includes advanced DMEM/F-12 (Thermo Fisher Scientific, cat. 12634028), 10 mM HEPES (Thermo Fisher Scientific, cat. 15630080), 1X GlutaMAX supplement (Thermo Fisher Scientific, cat. 35050061), 0.1 mg/mL primocin (InvivoGen, cat. ant-pm-2), 10% defined fetal bovine serum, heat inactivated (HyClone Laboratories Inc., cat. SH30070.03HI), 50% L-WRN conditioned media (ATCC, cat. CRL-3276), 1.25 mM N-Acetyl-L-cysteine (Sigma-Aldrich, cat. A9165), 10 mM nicotinamide (Sigma-Aldrich, cat. N0636), 1X B-27 supplement (Thermo Fisher Scientific, cat. 17504044), 1X N-2 supplement (Thermo Fisher Scientific, cat. 17502048), 10 microM Y-27632 dihydrochloride (Tocris Bioscience, cat. 1254), and 50 ng/mL human EGF recombinant protein (Thermo Fisher Scientific, cat. PHG0311). The 485176-168-R4-J1-PDC line was cultured in Panc media, which includes all 6C/Colon 1B media components plus 100 ng/mL human FGF-10 (Thermo Fisher Scientific, cat. 100-26), 500 nM SB-431542 (Selleckchem, cat. S1067), and gastrin (Tocris, cat. 3006).
[…]

[1] = second compound 0.0316 µM, first compound 0.0316 µM
[2] = second compound 0.0316 µM, first compound 0.1 µM
[3] = second compound 0.0316 µM, first compound 0.316 µM
[4] = second compound 0.0316 µM, first compound 1 µM
[5] = second compound 0.0316 µM, first compound 3.16 µM
[6] = second compound 0.0316 µM, first compound 10 µM
[7] = second compound 0.1 µM, first compound 0.0316 µM
[8] = second compound 0.1 µM, first compound 0.1 µM
[9] = second compound 0.1 µM, first compound 0.316 µM
[10] = second compound 0.1 µM, first compound 1 µM
[11] = second compound 0.1 µM, first compound 3.16 µM
[12] = second compound 0.1 µM, first compound 10 µM
[13] = second compound 0.316 µM, first compound 0.0316 µM
[14] = second compound 0.316 µM, first compound 0.1 µM
[15] = second compound 0.316 µM, first compound 0.316 µM
[16] = second compound 0.316 µM, first compound 1 µM
[17] = second compound 0.316 µM, first compound 3.16 µM
[18] = second compound 0.316 µM, first compound 10 µM
[19] = second compound 1 µM, first compound 0.0316 µM
[20] = second compound 1 µM, first compound 0.1 µM
[21] = second compound 1 µM, first compound 0.316 µM
[22] = second compound 1 µM, first compound 1 µM
[23] = second compound 1 µM, first compound 3.16 µM
[24] = second compound 1 µM, first compound 10 µM
[25] = second compound 3.16 µM, first compound 0.0316 µM
[26] = second compound 3.16 µM, first compound 0.1 µM
[27] = second compound 3.16 µM, first compound 0.316 µM
[28] = second compound 3.16 µM, first compound 1 µM
[29] = second compound 3.16 µM, first compound 3.16 µM
[30] = second compound 3.16 µM, first compound 10 µM
[31] = second compound 10 µM, first compound 0.0316 µM
[32] = second compound 10 µM, first compound 0.1 µM
[33] = second compound 10 µM, first compound 0.316 µM
[34] = second compound 10 µM, first compound 1 µM
[35] = second compound 10 µM, first compound 3.16 µM
[36] = second compound 10 µM, first compound 10 µM
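Further: spheroids exposed to the agents for seven days.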
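Wherever viability, T/C is given: percent of DMSO vehicle control viability which is 100%.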

C#Cc1c(F)ccc2cc(O)cc(-c3ncc4c(N5CC6CCC(C5)N6)nc(OCC56CCCN5CC(F)C6)nc4c3F)c12 (centres undefined) + Cc1cnc(CNC(=O)c2c(=O)c3ccc(N4CCCN(C)CC4)nc3n3c2sc2ccccc23)cn1
3910 nM: IC50 (second compound 0.0316 µM)
< 31.6 nM: IC50 (second compound 0.316 µM) | IC50 (second compound 1 µM) | IC50 (second compound 3.16 µM) | IC50 (second compound 10 µM)
inactive: viability, T/C [1] 68.9% | viability, T/C [2] 72.5% | viability, T/C [3] 65.2% | viability, T/C [4] 58.7% | viability, T/C [5] 47.1% | viability, T/C [6] 45.6% | viability, T/C [7] 52.3% | viability, T/C [8] 49.7% | viability, T/C [9] 52.1% | viability, T/C [10] 44.7% | viability, T/C [11] 39.8% | viability, T/C [12] 38.9% | viability, T/C [13] 47.1% | viability, T/C [14] 49.8% | viability, T/C [15] 43.7% | viability, T/C [16] 36.4% | viability, T/C [17] 37.2% | viability, T/C [18] 26.8% | viability, T/C [19] 41.7% | viability, T/C [20] 42.1% | viability, T/C [21] 42.1% | viability, T/C [22] 36.3% | viability, T/C [23] 30.9% | viability, T/C [24] 26.8% | viability, T/C [25] 38.4% | viability, T/C [26] 36.2% | viability, T/C [27] 34.4% | viability, T/C [28] 31.5% | viability, T/C [29] 27.7% | viability, T/C [30] 24.3% | viability, T/C [31] 31.3% | viability, T/C [32] 32.9% | viability, T/C [33] 26.5% | viability, T/C [34] 27.2% | viability, T/C [35] 23.7% | viability, T/C [36] 23.1%
157 nM: IC50 (second compound 0.1 µM)

Nc1ccn(C2OC(CO)C(O)C2(F)F)c(=O)n1 (centres undefined) + Cc1cnc(CNC(=O)c2c(=O)c3ccc(N4CCCN(C)CC4)nc3n3c2sc2ccccc23)cn1
< 31.6 nM: IC50 (second compound 0.0316 µM) | IC50 (second compound 0.1 µM) | IC50 (second compound 0.316 µM) | IC50 (second compound 1 µM) | IC50 (second compound 3.16 µM) | IC50 (second compound 10 µM)
inactive: viability, T/C [1] 26.8% | viability, T/C [2] 22.2% | viability, T/C [3] 21.5% | viability, T/C [4] 21.3% | viability, T/C [5] 20.6% | viability, T/C [6] 19.9% | viability, T/C [7] 27.8% | viability, T/C [8] 23.1% | viability, T/C [9] 22.4% | viability, T/C [10] 19.9% | viability, T/C [11] 24.2% | viability, T/C [12] 19.5% | viability, T/C [13] 24.7% | viability, T/C [14] 25.8% | viability, T/C [15] 22.4% | viability, T/C [16] 22.9% | viability, T/C [17] 21.9% | viability, T/C [18] 19.5% | viability, T/C [19] 25.5% | viability, T/C [20] 23.8% | viability, T/C [21] 22.7% | viability, T/C [22] 24% | viability, T/C [23] 23% | viability, T/C [24] 19.4% | viability, T/C [25] 25.7% | viability, T/C [26] 23.6% | viability, T/C [27] 21.7% | viability, T/C [28] 22% | viability, T/C [29] 21.5% | viability, T/C [30] 20.9% | viability, T/C [31] 26.6% | viability, T/C [32] 22.3% | viability, T/C [33] 22.6% | viability, T/C [34] 23.3% | viability, T/C [35] 20.7% | viability, T/C [36] 17.9%
